Key:
[1] = tested on: IL-10; assay: Increasing levels of IL-10 in mice (plasma ELISA); type: in vivo; details: for % IL-10 Induction, IP 30: 30 μg per mouse; for % IL-10 Induction, Oral 600: 600 μg per mouse; for increase of IL-10: plasma levels in mice; for % IL-10 Induction, IP 100: 100 μg per mouse
Procedure: Isoquinoline compounds were administered intraperitoneally to mice in doses of 30, 100 or 300 μg/mouse or orally in doses of 300 or 600 μg/mouse. Levels of IL-10 were measured 90 or 105 minutes after administration as indicated. Samples were collected and diluted, when appropriate, as described in Example VI. A 100 μl sample of plasma was assayed by ELISA for IL-10. Briefly, ELISA plates were coated with rat anti-mouse IL-10 monoclonal antibody (Pharmingen; San Diego Calif.). Samples or known concentrations of IL-10 were added to the coated plates and incubated for 2 hr at 37° C. Plates were washed and incubated with biotinylated rat anti-mouse IL-10 (R&D Systems; Minneapolis Minn.) for 1 hr at 37° C. Plates were washed and incubated with streptavidin-HRP 30 min at 37° C., and HRP activity was detected with hydrogen peroxide and TMB using standard immunoassay procedures.

[2] = tested on: arachidonic acid induced dermal inflammation; assay: Arachidonic acid induced dermal inflammation (ear thickness); type: in vivo, Female BALB/c mice; details: for inflammation in response to arachadonic acid administration: mouse, in vivo
[3] = target: T1, MCR-1 (Homo sapiens, UniProt Q01726); assay: cAMP assay for melanocortin receptors, HEK 293 cells expressing MCR-1; type: cell-based; details: for EC50: 50% of maximal cAMP production, read-out: MC-1 EC50 (cAMP); for MC-1 Max (pmole) cAMP produced: maximum amount of cAMP
T1 construct: expressed in transfected cells; host or cells: HEK 293
Procedure: (§1) HEK 293 cells expressing MCR-1, MCR-3, MCR-4 and MCR-5 were used (see Example II). Cells were plated at 20,000 cells per well in a 96-well plate coated with collagen. The next day, cells were pretreated with 75 μl of 0.4 mM 3-isobutyl-1-methylxanthine (IBMX) in low serum medium containing DMEM, 25 mM HEPES, non-essential amino acids, vitamins, 100 units/ml penicillin, 100 μg/ml streptomycin and 0.1% COSMIC CALF SERUM. IBMX is an inhibitor of cAMP phosphodiesterase. The pretreatment was carried out for 10 min at 37° C.
(§2) Following pretreatment, 25 μl of diluted isoquinoline compound was added to the wells, and cells were incubated for 15 min at 37° C. Cells were lysed by adding 25 μl saponin lysis buffer and incubating 2 to 5 min. Plates were covered and stored at −20° C.
(§3) cAMP concentration was determined by ELISA. Briefly, 96 well ELISA plates were coated with goat anti-cAMP antibody in PBS for 12 to 72 hr at 4° C. 50 μl of sample was mixed with 50 μl of cAMP ELISA buffer containing 1% bovine serum albumin, 10% heat-inactivated donor horse serum, 1% normal mouse serum and 0.05% TWEEN-20 in PBS, and the diluted sample was added to the coated ELISA plate. Standards of known concentrations of cAMP were added to separate wells. 25 μl of 16 ng/ml cAMP-conjugated horse radish peroxidase (HRP) (cAMP-HRP) was added to each well, and the plates were […] at room temperature. Plates were washed and the binding of cAMP-HRP was detected with 3,3′,5,5′-tetramethylbenzidine (TMB) and hydrogen peroxide using standard immunoassay procedures.
(§4) Various isoquinoline compounds were tested for their ability to activate MC receptor by measuring cAMP as described in Example III.

[4] = target: T1, MCR-1; assay: Melanocortin receptor binding assay, competition with 125I-HP 467, HEK 293 cells expressing hMCR-1; details: for % Disp. of 125I-HP 467 (first of duplicate) / % Disp. of 125I-HP 467 (second of duplicate): 10 μM isoquinoline compound; for % Disp. of 125I-HP 467 (first of duplicate): HEK 293 cells expressing MCR-1, duplicate 1; for % Disp. of 125I-HP 467 (second of duplicate): HEK 293 cells expressing MCR-1, duplicate 2; for specificity for at least one MC receptor over another MC receptor: MCR-1 versus MCR-4 binding; for effectiveness as MC receptor ligand: binding to MC receptors, Table 1
Method in brief: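 Intact-cell competition binding, 2.5 hr at 37 °C, in PBS/10% calf serum/1 mM CaCl2; hMCR-4 cells at 4×10^3 per tube, hMCR-1 cells at 2×10^4 per tube. Filtration on BSA/CaCl2-soaked GF/B, cold 50 mM Tris pH 7.4 washes, scintillation count.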

[5] = target: T2, MCR-4 (Homo sapiens, UniProt P32245); assay: cAMP assay for melanocortin receptors, HEK 293 cells expressing MCR-4; type: cell-based; details: for MC-4 Max (pmole) cAMP produced: maximum amount of cAMP; for EC50: read-out: MC-4 EC50 (cAMP)
T2 construct: expressed in transfected cells; host or cells: HEK 293
Procedure: as §1, §2, §3, §4

[6] = target: T3, MCR-3 (Homo sapiens, UniProt P41968); assay: cAMP assay for melanocortin receptors, HEK 293 cells expressing MCR-3; type: cell-based; details: read-out: MC-3 EC50 (cAMP)
T3 construct: expressed in transfected cells; host or cells: HEK 293
Procedure: as §1, §2, §3, §4

[7] = mouse plasma, 90 or 105 minutes
[8] = 300 μg per mouse, mouse plasma, 90 or 105 minutes
[9] = Oral, mouse plasma, 90 or 105 minutes
[10] = 100 μg/mouse administered intraperitoneally, FIG. 4

T1 sequence (Q01726 whole entry): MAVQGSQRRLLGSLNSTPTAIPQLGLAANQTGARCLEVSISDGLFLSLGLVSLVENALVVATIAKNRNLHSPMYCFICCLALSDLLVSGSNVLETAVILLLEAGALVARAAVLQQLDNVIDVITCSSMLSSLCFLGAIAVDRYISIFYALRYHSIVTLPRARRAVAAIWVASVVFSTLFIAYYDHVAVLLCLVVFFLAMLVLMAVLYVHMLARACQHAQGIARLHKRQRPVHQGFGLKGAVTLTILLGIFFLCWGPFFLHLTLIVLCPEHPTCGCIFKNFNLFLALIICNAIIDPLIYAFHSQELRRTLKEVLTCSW
T2 sequence (P32245 whole entry): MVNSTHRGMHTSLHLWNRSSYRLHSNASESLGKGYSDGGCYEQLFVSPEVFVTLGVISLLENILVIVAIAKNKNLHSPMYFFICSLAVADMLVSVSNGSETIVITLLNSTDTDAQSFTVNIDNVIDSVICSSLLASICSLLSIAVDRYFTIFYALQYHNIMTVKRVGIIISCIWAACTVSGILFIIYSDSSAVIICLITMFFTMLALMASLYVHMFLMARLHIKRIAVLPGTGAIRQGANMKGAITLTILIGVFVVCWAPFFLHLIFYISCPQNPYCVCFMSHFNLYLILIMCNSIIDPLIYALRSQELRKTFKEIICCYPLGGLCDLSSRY
T3 sequence (P41968 whole entry): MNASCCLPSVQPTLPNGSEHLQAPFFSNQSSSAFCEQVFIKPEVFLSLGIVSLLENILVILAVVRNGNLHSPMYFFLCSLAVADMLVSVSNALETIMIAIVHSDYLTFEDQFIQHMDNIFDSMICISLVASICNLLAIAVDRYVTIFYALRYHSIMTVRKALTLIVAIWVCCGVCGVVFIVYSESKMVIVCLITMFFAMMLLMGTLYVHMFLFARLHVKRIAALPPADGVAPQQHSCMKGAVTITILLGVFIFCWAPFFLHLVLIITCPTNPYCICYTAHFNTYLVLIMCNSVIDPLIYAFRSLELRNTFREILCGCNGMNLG

Row | Compound | EC50 [3] | MC-1 Max (pmole) cAMP produced [3] | % Disp. of 125I-HP 467 (first of duplicate) [4] | % Disp. of 125I-HP 467 (second of duplicate) [4] | specificity for at least one MC receptor over another MC receptor [4] | MC-4 Max (pmole) cAMP produced [5] | EC50 [5] | EC50 [6] | % IL-10 Induction, IP 30 [1, 7] | % IL-10 Induction, IP 300 [1, 8] | % IL-10 Induction, Oral 600 [1, 9] | increase of IL-10 [1] | inhibition of arachidonic acid induced dermal inflammation [2, 10] | inflammation in response to arachadonic acid administration [2] | effectiveness as MC receptor ligand [4] | % IL-10 Induction, IP 100 [1, 7] | % IL-10 Induction, Oral 300 ([1]; Oral, 300 μg per mouse, mouse plasma, 90 or 105 minutes) | inhibition of arachidonic acid induced dermal inflammation ([2]; administered intraperitoneally, TRG 2405-241 300 μg/mouse, HP 228 100 μg/mouse, FIG. 3) | inhibition of arachidonic acid induced dermal inflammation ([2]; administered orally, TRG 2405-241 600 μg/mouse, indomethacin 1 mg/mouse, FIG. 2)
1 | CNC(CN)CCCCN1Cc2ccccc2C(CNC2CCCCC2)C1c1ccc(Oc2ccccc2)cc1 (stereo not drawn) [TRG 2405-252] | 16 µM | 33.07 pmol | 95.1% | 95.5% | about 10 fold | 39.24 pmol | 18.5 µM | > 50 µM | 2 ± 13% | 307 ± 43 % | 69 ± 19 % | particularly effective at increasing IL-10 | inhibition of arachidonic acid induced dermal inflammation | reduced inflammation | particularly effective MC receptor ligands |  |  |  | 
2 | CNC(CN)CCCCN1Cc2ccccc2C(CNC2CCCCC2)C1c1ccc(-c2ccccc2)cc1 (stereo not drawn) [TRG 2405-241] | 10.4 µM | 66.67 pmol | 89.5% | 88.8% | about 10 fold | 32.32 pmol | 28.5 µM | > 50 µM | 117 ± 21% | 406 ± 46 % | 77 ± 37 % | particularly effective at increasing IL-10 | inhibition of arachidonic acid induced dermal inflammation | reduced inflammation | particularly effective MC receptor ligands | 310 ± 35 % | 9 ± 23% | comparable to that seen with HP 228 | comparable to that seen with indomethacin
3 | CCCOc1ccc(C2C(CNC3CCCCC3)c3ccccc3CN2CCCCC(CN)NC)cc1 (stereo not drawn) [TRG 2405-253] | 8.5 µM | 22.55 pmol | 93.9% | 92.2% | about 10 fold | 69.11 pmol | 16.6 µM | > 50 µM | 7 ± 21% | 325 ± 73 % |  | particularly effective at increasing IL-10 | inhibition of arachidonic acid induced dermal inflammation | reduced inflammation | particularly effective MC receptor ligands |  |  |  | 

The next lines start with results.

Row | EC50 [3] | MC-1 Max (pmole) cAMP produced [3] | % Disp. of 125I-HP 467 (first of duplicate) [4] | % Disp. of 125I-HP 467 (second of duplicate) [4] | specificity for at least one MC receptor over another MC receptor [4] | MC-4 Max (pmole) cAMP produced [5] | EC50 [5] | EC50 [6] | Compound | % IL-10 Induction, IP 30 [1, 7] | % IL-10 Induction, IP 300 [1, 8] | % IL-10 Induction, Oral 600 [1, 9] | increase of IL-10 [1] | inhibition of arachidonic acid induced dermal inflammation [2, 10] | inflammation in response to arachadonic acid administration [2] | effectiveness as MC receptor ligand [4] | % IL-10 Induction, IP 100 [1, 7] | % IL-10 Induction, Oral 300 ([1]; Oral, 300 μg per mouse, mouse plasma, 90 or 105 minutes) | inhibition of arachidonic acid induced dermal inflammation ([2]; administered intraperitoneally, TRG 2405-241 300 μg/mouse, HP 228 100 μg/mouse, FIG. 3) | inhibition of arachidonic acid induced dermal inflammation ([2]; administered orally, TRG 2405-241 600 μg/mouse, indomethacin 1 mg/mouse, FIG. 2)
4 | 3.67 µM | 20.6 pmol | 86.6% | 85.2% |  |  | > 50 µM | > 50 µM | CCNc1ccc(C2C(CNC3CCCCC3)c3ccccc3CN2CCCCC(CN)NC)cc1 (stereo not drawn) [TRG 2405-239] | 44 ± 35% | 197 ± 34 % | 46 ± 14% |  |  |  | particularly effective MC receptor ligands | −29 ± 6% |  |  | 
5 | 23.7 µM | 12.48 pmol | 26.5% | 20.7% |  |  | > 50 µM | > 50 µM | CNC(CN)CCCCN1Cc2ccccc2C(CNC2CCCCC2)C1c1ccc(O)cc1 (stereo not drawn) [TRG 2405-246] |  |  | 30 ± 5 % |  |  |  |  |  |  |  | 

Source: US6608082B1, “Treatment of erectile dysfunction using isoquinoline compound melanocortin receptor ligands” (Lion Bioscience AG, priority 1998, dated 2003)
